Measured values as given in ChEMBL document CHEMBL3885881, “DrugMatrix”.

Species: Rattus norvegicus
Assay: DrugMatrix - Regimen: Daily Repeat
Assay type: toxicity, organism-based, Sprague-Dawley
Set-up: regimen Daily Repeat, gender Male, age 6-8 weeks
Settings: in vivo, po, route oral GAVAGE, vehicle 100 % WATER; for ABSOLUTE BASOPHIL / ABSOLUTE EOSINOPHIL / ABSOLUTE LYMPHOCYTE / ABSOLUTE MONOCYTE / ABSOLUTE SEGMENTED NEUTROPHIL / BASOPHIL / EOSINOPHIL / ERYTHROCYTE COUNT / HEMATOCRIT / HEMOGLOBIN / LEUKOCYTE COUNT / LYMPHOCYTE / MEAN CORPUSCULAR HEMOGLOBIN / MEAN CORPUSCULAR HEMOGLOBIN CONCENTRATION / MEAN CORPUSCULAR VOLUME / MONOCYTE / NEUTROPHIL / NUCLEATED RED BLOOD CELLS / PLATELET COUNT: tissue Blood; for ALANINE AMINOTRANSFERASE / ALBUMIN / ALKALINE PHOSPHATASE / ASPARTATE AMINOTRANSFERASE / BLOOD UREA NITROGEN / CARBON DIOXIDE / CHLORIDE / CHOLESTEROL / CREATINE PHOSPHOKINASE / CREATININE / GLUCOSE / LACTATE DEHYDROGENASE / LIPASE / PHOSPHORUS / POTASSIUM / SODIUM / TOTAL BILIRUBIN / TOTAL PROTEIN / URIC ACID: tissue Plasma
[1] = 0 mg/kg, 72 h, dose level Control, time 3 day
[2] = 0 mg/kg, 120 h, dose level Control, time 5 day
[3] = 300 mg/kg, 72 h, dose level Low, time 3 day

## CC(Cl)(Cl)Cl [TRICHLOROETHANE]
[1]
  ABSOLUTE BASOPHIL: 0 CELLS/uL
  ABSOLUTE EOSINOPHIL: 86.33 CELLS/uL
  ABSOLUTE LYMPHOCYTE: 12090.17 CELLS/uL
  ABSOLUTE MONOCYTE: 166.67 CELLS/uL
  ABSOLUTE SEGMENTED NEUTROPHIL: 1090.17 CELLS/uL
  BASOPHIL: 0%
  EOSINOPHIL: 0.67%
  ERYTHROCYTE COUNT: 5.57 x10E6/uL
  HEMATOCRIT: 35.33%
  HEMOGLOBIN: 13.83 G/DL
  LEUKOCYTE COUNT: 13.43 x10E3/uL
  LYMPHOCYTE: 89.83%
  MEAN CORPUSCULAR HEMOGLOBIN: 24.88 pg
  MEAN CORPUSCULAR HEMOGLOBIN CONCENTRATION: 39.15 G/DL
  MEAN CORPUSCULAR VOLUME: 63.52 fL
  MONOCYTE: 1.17%
  NEUTROPHIL: 8.33%
  NUCLEATED RED BLOOD CELLS: 0 /100WBC
  PLATELET COUNT: 1181.33 x10E3/uL
  ALANINE AMINOTRANSFERASE: 48.33 u/L
  ALBUMIN: 4.1 G/DL
  ALKALINE PHOSPHATASE: 395 u/L
  ASPARTATE AMINOTRANSFERASE: 81.83 u/L
  BLOOD UREA NITROGEN: 15.83 mg/dL
  CARBON DIOXIDE: 24.17 mmol/L
  CHLORIDE: 103.83 MEQ/L
  CHOLESTEROL: 63.67 mg/dL
  CREATINE PHOSPHOKINASE: 372.83 u/L
  CREATININE: 0.18 mg/dL
  GLUCOSE: 173.83 mg/dL
  LACTATE DEHYDROGENASE: 188.33 u/L
  LIPASE: 9.5 u/L
  PHOSPHORUS: 11.95 mg/dL
  POTASSIUM: 5.99 MEQ/L
  SODIUM: 144.43 MEQ/L
  TOTAL BILIRUBIN: 0.15 mg/dL
  TOTAL PROTEIN: 5.95 G/DL
  URIC ACID: 1.82 mg/dL
[2]
  ABSOLUTE BASOPHIL: 0 CELLS/uL
  ABSOLUTE EOSINOPHIL: 26.67 CELLS/uL
  ABSOLUTE LYMPHOCYTE: 7583.83 CELLS/uL
  ABSOLUTE MONOCYTE: 131.33 CELLS/uL
  ABSOLUTE SEGMENTED NEUTROPHIL: 674.83 CELLS/uL
  BASOPHIL: 0%
  EOSINOPHIL: 0.33%
  ERYTHROCYTE COUNT: 5.78 x10E6/uL
  HEMATOCRIT: 36.48%
  HEMOGLOBIN: 14.03 G/DL
  LEUKOCYTE COUNT: 8.42 x10E3/uL
  LYMPHOCYTE: 89.83%
  MEAN CORPUSCULAR HEMOGLOBIN: 24.3 pg
  MEAN CORPUSCULAR HEMOGLOBIN CONCENTRATION: 38.52 G/DL
  MEAN CORPUSCULAR VOLUME: 63.15 fL
  MONOCYTE: 1.67%
  NEUTROPHIL: 8.17%
  NUCLEATED RED BLOOD CELLS: 0 /100WBC
  PLATELET COUNT: 1186.67 x10E3/uL
  ALANINE AMINOTRANSFERASE: 50.17 u/L
  ALBUMIN: 4.07 G/DL
  ALKALINE PHOSPHATASE: 367.5 u/L
  ASPARTATE AMINOTRANSFERASE: 81.67 u/L
  BLOOD UREA NITROGEN: 16.17 mg/dL
  CARBON DIOXIDE: 32.33 mmol/L
  CHLORIDE: 101.5 MEQ/L
  CHOLESTEROL: 65.33 mg/dL
  CREATINE PHOSPHOKINASE: 255.33 u/L
  CREATININE: 0.17 mg/dL
  GLUCOSE: 139.33 mg/dL
  LACTATE DEHYDROGENASE: 95 u/L
  LIPASE: 10.5 u/L
  PHOSPHORUS: 10.38 mg/dL
  POTASSIUM: 6.11 MEQ/L
  SODIUM: 145.55 MEQ/L
  TOTAL BILIRUBIN: 0.17 mg/dL
  TOTAL PROTEIN: 5.98 G/DL
  URIC ACID: 0.93 mg/dL
[3]
  ABSOLUTE BASOPHIL: 0 CELLS/uL
  ABSOLUTE EOSINOPHIL: 37 CELLS/uL
  ABSOLUTE LYMPHOCYTE: 13276 CELLS/uL
  ABSOLUTE MONOCYTE: 236.33 CELLS/uL
  ABSOLUTE SEGMENTED NEUTROPHIL: 1084 CELLS/uL
  BASOPHIL: 0%
  EOSINOPHIL: 0.33%
  ERYTHROCYTE COUNT: 5.75 x10E6/uL
  HEMATOCRIT: 37.23%
  HEMOGLOBIN: 14.1 G/DL
  LEUKOCYTE COUNT: 14.63 x10E3/uL
  LYMPHOCYTE: 90.67%
  MEAN CORPUSCULAR HEMOGLOBIN: 24.53 pg
  MEAN CORPUSCULAR HEMOGLOBIN CONCENTRATION: 37.87 G/DL
  MEAN CORPUSCULAR VOLUME: 64.8 fL
  MONOCYTE: 1.67%
  NEUTROPHIL: 7.33%
  NUCLEATED RED BLOOD CELLS: 0 /100WBC
  PLATELET COUNT: 1274 x10E3/uL
  ALANINE AMINOTRANSFERASE: 52 u/L
  ALBUMIN: 4 G/DL
  ALKALINE PHOSPHATASE: 352.67 u/L
  ASPARTATE AMINOTRANSFERASE: 88.67 u/L
  BLOOD UREA NITROGEN: 16 mg/dL
  CARBON DIOXIDE: 24.67 mmol/L
  CHLORIDE: 102.33 MEQ/L
  CHOLESTEROL: 72 mg/dL
  CREATINE PHOSPHOKINASE: 1076 u/L
  CREATININE: 0.13 mg/dL
  GLUCOSE: 161 mg/dL
  LACTATE DEHYDROGENASE: 188.67 u/L
  LIPASE: 9 u/L
  PHOSPHORUS: 13.77 mg/dL
  POTASSIUM: 6.88 MEQ/L
  SODIUM: 144.3 MEQ/L
  TOTAL BILIRUBIN: 0.2 mg/dL
  TOTAL PROTEIN: 5.83 G/DL
  URIC ACID: 1.93 mg/dL
